target: T1, human pancreatic GK (human glucokinase variant 1, GST-fused protein) (Homo sapiens, UniProt P35557); assay: GK activity test (GK activation rate); type: biochemical; details: test compound 1 μM; glucose 5 mM; 30 min at room temperature; absorbance at 340 nm with test compound / without test compound
T1 construct: made in house; host or cells: Escherichia coli (such as BL21 or JM109)
T1 sequence (P35557 1-465): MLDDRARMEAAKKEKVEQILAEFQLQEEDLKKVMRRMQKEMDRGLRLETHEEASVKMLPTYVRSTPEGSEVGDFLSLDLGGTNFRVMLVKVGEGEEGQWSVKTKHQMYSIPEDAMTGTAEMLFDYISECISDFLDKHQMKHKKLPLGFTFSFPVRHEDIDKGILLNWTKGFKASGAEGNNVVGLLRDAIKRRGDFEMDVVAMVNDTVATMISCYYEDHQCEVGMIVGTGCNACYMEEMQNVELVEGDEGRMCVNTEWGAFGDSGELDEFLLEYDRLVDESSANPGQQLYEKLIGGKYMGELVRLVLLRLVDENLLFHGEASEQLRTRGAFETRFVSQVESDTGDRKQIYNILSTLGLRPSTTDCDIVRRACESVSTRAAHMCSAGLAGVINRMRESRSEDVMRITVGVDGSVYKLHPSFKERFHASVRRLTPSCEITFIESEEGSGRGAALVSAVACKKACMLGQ
Experimental: cDNA encoding human pancreatic GK polypeptide (GenBank Accession No. NM_000162, human glucokinase variant 1) was cloned from a human cDNA library by polymerase chain reaction (PCR), and introduced into a glutathione S-transferase (GST)-fused protein expression vector (GEX4T, GE Healthcare Bioscience). The vector was introduced into Escherichia coli (such as BL21 or JM109, Invitrogen), and the transformed E. coli was cultured overnight at 37° C. followed by recovery of the cells. After freezing and thawing the recovered cells, the cells were suspended in phosphate buffer containing Triton-X at a final concentration of 1% followed by disrupting the cells with an ultrasonic homogenizer. The supernatant obtained by low-speed centrifugation treatment of the homogenate (10,000×g, 30 minutes) was further subjected to high-speed centrifugation (100,000×g, 10 minutes) followed by recovering the supernatant and purifying the fused protein using a GST fused protein purification system (Bulk GST Purification Module, GE Healthcare Bioscience). The GK fused protein was divided into smaller aliquots and stored at −80° C.
GK activity was measured using the GK purified in (1) above. More specifically, an enzyme solution was prepared by adding the purified GK of (1) above and glucose-6-phosphate dehydrogenase (Sigma) to solution 1 of a glucose assay kit (D-Glucose UV Method, Roche Diagnostics). The enzyme solution, a test compound diluent and glucose (final concentration: 5 mM) were mixed in a 96-well ELISA plate, and allowed to react for 30 minutes at room temperature. Following completion of the reaction, absorbance at a wavelength of 340 nm was measured using SpectraMax Plus (Molecular Probe). Furthermore, unreacted (when glucose was not added) absorbance was used for the background.
GK activation rates were indicated with values represented by the following numerical formula: (absorbance after reacting for 30 minutes when test compound added)/(absorbance after reacting for 30 minutes when test compound not added).

Compound | GK Activation Rate
COC[C@H](C)Oc1cc(Oc2ccc(S(C)(=O)=O)nc2)cc(-c2ccc(C3=NC[C@H](CO)O3)[nH]2)c1 [Example 82, {(5R)-2-[5-(3-[(1S)-2-Methoxy-1-methylethoxy]-5-{[6-(methylsulfonyl)pyridin-3-yl]oxy}phenyl)-1H-pyrrol-2-yl]-4,5-dihydro-1,3-oxazol-5-yl}methanol] | 2.7
COC[C@H](C)Oc1cc(Oc2ccc(C(=O)N3CCC3)cc2F)cc(-c2ccc(-c3nccs3)[nH]2)c1 [Example 41, 2-(5-{3-[4-(Azetidin-1-ylcarbonyl)-2-fluorophenoxy]-5-[(1S)-2-methoxy-1-methylethoxy]phenyl}-1H-pyrrol-2-yl)-1,3-thiazole] | 2.1
C[C@@H](CO)Oc1cc(Oc2ccc(S(C)(=O)=O)cc2)cc(-c2ccc(C3=NCCS3)[nH]2)c1 [Example 26, (2S)-2-{3-[5-(4,5-Dihydro-1,3-thiazol-2-yl)-1H-pyrrol-2-yl]-5-[4-(methylsulfonyl)phenoxy]phenoxy}propan-1-ol] | 2.3
COC[C@H](C)Oc1cc(Oc2ccc(S(C)(=O)=O)cc2)cc(-c2ccc(C3=NC[C@H](C)O3)[nH]2)c1 [Example 31, (5S)-2-(5-{3-[(1S)-2-Methoxy-1-methylethoxy]-5-[4-(methylsulfonyl)phenoxy]phenyl}-1H-pyrrol-2-yl)-5-methyl-4,5-dihydro-1,3-oxazole] | 2.0
COC[C@H](C)Oc1cc(Oc2ccc(S(C)(=O)=O)cc2)cc(-c2ccc(C3=NCCS3)[nH]2)c1 [Example 25, 2-(5-{3-[(1S)-2-Methoxy-1-methylethoxy]-5-[4-(methylsulfonyl)phenoxy]phenyl}-1H-pyrrol-2-yl)-4,5-dihydro-1,3-thiazole] | 2.0
COC[C@H](C)Oc1cc(Oc2ccc(S(C)(=O)=O)nc2)cc(-c2ccc(C3=N[C@H](C)[C@H](CO)O3)[nH]2)c1 [Example 89, {(4R,5R)-2-[5-(3-[(1S)-2-Methoxy-1-methylethoxy]-5-{[6-(methylsulfonyl)pyridin-3-yl]oxy}phenyl)-1H-pyrrol-2-yl]-4-methyl-4,5-dihydro-1,3-oxazol-5-yl}methanol] | 2.3
COC[C@H](C)Oc1cc(Oc2cnc(S(C)(=O)=O)cn2)cc(-c2ccc(C3=N[C@H]([C@H](C)O)CO3)[nH]2)c1 [Example 112, (1S)-1-{(4S)-2-[5-(3-{[(25)-1-Methoxypropan-2-yl]oxy}-5-{[5-(methylsulfonyl)pyrazin-2-yl]oxy}phenyl)-1H-pyrrol-2-yl]-4,5-dihydro-1,3-oxazol-4-yl}ethanol] | 2.4
COC[C@H](C)Oc1cc(Oc2cnc(S(C)(=O)=O)cn2)cc(-c2ccc(C3=N[C@H](CO)[C@H](C)O3)[nH]2)c1 [Example 110, {(4R,5S)-2-[5-(3-{[(2S)-1-Methoxypropan-2-yl]oxy}-5-{[5-(methylsulfonyl)pyrazin-2-yl]oxy}phenyl)-1H-pyrrol-2-yl]-5-methyl-4,5-dihydro-1,3-oxazol-4-yl}methanol] | 2.4
CNC(=O)c1ccc(Oc2cc(O[C@@H](C)COC)cc(-c3ccc(C4=NC[C@H](CO)O4)[nH]3)c2)cn1 [Example 126, 5-(3-{5-[(5R)-5-(Hydroxymethyl)-4,5-dihydro-1,3-oxazol-2-yl]-1H-pyrrol-2-yl}-5-[(1S)-2-methoxy-1-methylethoxy]phenoxy)-N-methylpyridine-2-carboxamide] | 2.6
CNS(=O)(=O)c1ccc(Oc2cc(O[C@@H](C)COC)cc(-c3ccc(C4=NC[C@H](CO)O4)[nH]3)c2)cn1 [Example 127, 5-(3-{5-[(5R)-5-(Hydroxymethyl)-4,5-dihydro-1,3-oxazol-2-yl]-1H-pyrrol-2-yl}-5-[(1S)-2-methoxy-1-methylethoxy]phenoxy)-N-methylpyridine-2-sulfonamide] | 2.4
CC[C@@H]1COC(c2ccc(-c3cc(Oc4ccc(S(C)(=O)=O)nc4)cc(O[C@@H](C)CO)c3)[nH]2)=N1 [Example 85, (2S)-2-(3-{5-[(4R)-4-Ethyl-4,5-dihydro-1,3-oxazol-2-yl]-1H-pyrrol-2-yl}-5-{[6-(methylsulfonyl)pyridin-3-yl]oxy}phenoxy)propan-1-ol] | 2.9
CNC(=O)c1ccc(Oc2cc(O[C@@H](C)CO)cc(-c3ccc(C4=NC[C@H](C)O4)[nH]3)c2)cn1 [Example 123, 5-(3-[(1S)-2-Hydroxy-1-methylethoxy]-5-{5-[(5S)-5-methyl-4,5-dihydro-1,3-oxazol-2-yl]-1H-pyrrol-2-yl}phenoxy)-N-methylpyridine-2-carboxamide] | 2.6
COC[C@H](C)Oc1cc(Oc2ccc(S(C)(=O)=O)cc2)cc(-c2ccc(C3=NCC(CO)O3)[nH]2)c1 (stereo partly drawn) [Example 29, [2-(5-{3-[(1S)-2-Methoxy-1-methylethoxy]-5-[4-(methylsulfonyl)phenoxy]phenyl}-1H-pyrrol-2-yl)-4,5-dihydro-1,3-oxazol-5-yl]methanol] | 2.0
COC[C@H](C)Oc1cc(Oc2ccc(S(C)(=O)=O)nc2)cc(-c2ccc(C3=N[C@H](CO)[C@H](C)O3)[nH]2)c1 [Example 91, {(4R,5S)-2-[5-(3-[(1S)-2-Methoxy-1-methylethoxy]-5-{[6-(methylsulfonyl)pyridin-3-yl]oxy}phenyl)-1H-pyrrol-2-yl]-5-methyl-4,5-dihydro-1,3-oxazol-4-yl}methanol] | 2.6
COC[C@H](C)Oc1cc(Oc2cnc(S(C)(=O)=O)cn2)cc(-c2ccc(C3=N[C@H]([C@@H](C)O)CO3)[nH]2)c1 [Example 114, (1R)-1-{(4S)-2-{[5-(3-[(2S)-1-Methoxypropan-2-yl]oxy}-5-{[5-(methylsulfonyl)pyrazin-2-yl]oxy}phenyl)-1H-pyrrol-2-yl]-4,5-dihydro-1,3-oxazol-4-yl}ethanol] | 2.2
C[C@@H](CO)Oc1cc(Oc2ccc(S(C)(=O)=O)cc2)cc(-c2ccc(C3=NCCO3)[nH]2)c1 [Example 21, (2S)-2-{3-[5-(4,5-Dihydro-1,3-oxazol-2-yl)-1H-pyrrol-2-yl]-5-[4-(methylsulfonyl)phenoxy]phenoxy}propan-1-ol] | 2.0
COC[C@H](C)Oc1cc(Oc2ccc(S(C)(=O)=O)cc2)cc(-c2ccc(C3=NCCO3)[nH]2)c1 [Example 20, 2-(5-{3-[(1S)-2-Methoxy-1-methylethoxy]-5-[4-(methylsulfonyl)phenoxy]phenyl}-1H-pyrrol-2-yl)-4,5-dihydro-1,3-oxazole] | 2.0
COC[C@H](C)Oc1cc(Oc2ccc(S(C)(=O)=O)cc2)cc(-c2ccc(-c3ncc(C)s3)[nH]2)c1 [Example 3, 2-(5-{3-[(1S)-2-Methoxy-1-methylethoxy]-5-[4-(methylsulfonyl)phenoxy]phenyl}-1H-pyrrol-2-yl)-5-methyl-1,3-thiazole] | 1.9
C[C@@H]1OC(c2ccc(-c3cc(Oc4ccc(S(C)(=O)=O)nc4)cc(O[C@@H](C)CO)c3)[nH]2)=N[C@@H]1C [Example 88, (2S)-2-(3-{5-[(4R,5S)-4,5-Dimethyl-4,5-dihydro-1,3-oxazol-2-yl]-1H-pyrrol-2-yl}-5-{[6-(methylsulfonyl)pyridin-3-yl]oxy}phenoxy)propan-1-ol] | 2.4
COC[C@H](C)Oc1cc(Oc2ccc(S(C)(=O)=O)cc2)cc(-c2ccc(-c3nccs3)[nH]2)c1 [Example 1, 2-(5-{3-[(1S)-2-Methoxy-1-methylethoxy]-5-[4-(methylsulfonyl)phenoxy]phenyl}-1H-pyrrol-2-yl)-1,3-thiazole] | 2.0
C[C@H]1CN=C(c2ccc(-c3cc(Oc4ccc(C(=O)N5CCC5)cc4F)cc(O[C@@H](C)CO)c3)[nH]2)O1 [Example 70, (2S)-2-(3-[4-(Azetidin-1-ylcarbonyl)-2-fluorophenoxy]-5-{5-[(5S)-5-methyl-4,5-dihydro-1,3-oxazol-2-yl}-1H-pyrrol-2-yl]phenoxy)propan-1-ol] | 1.9

From patent publication US8415359B2, “Phenylpyrrole derivative” (Daiichi Sankyo Company, Limited, priority 2008, dated 2013)
